Experimental data published in patent publication US20250195556A1, “COMPOSITIONS, KITS, AND METHODS TO INDUCE ACQUIRED CYTORESISTANCE USING STRESS PROTEIN INDUCERS” (FRED HUTCHINSON CANCER RESEARCH CENTER, priority 2014, published 2025).
“And” between values parts separate entries of the source, which are not always exact repeats. Identical values can stand only once.

Experiments:
[1] = Berglund et al. Hepatology 1988; cited from earlier work
IL-10 [2] = assay: Renal cortical IL-10 mRNA and protein after IV N-Mgb, SnPP or both; assay type: in vivo, mice; conditions: for Kidney protein: IL-10: control 304
Text: (§1) Cytoresistance-inducing reagents. […] (#Mb0360; Sigma) was used as the primary cytoresistance-inducing agent. However, because myoglobin (Mgb) has an inherent nephrotoxic potential (particularly under conditions of volume depletion and aciduria), two approaches were used to mitigate Mgb's potential adverse effects. First, the Mgb was converted into a nitrited form by the addition of equimolar amount of sodium (Na) nitrite. In this regard, nitrite is an ambidentate molecule that directly binds 1:1 to myoglobin Fe either via its oxygen or nitrogen component. Cotton et al. Advanced inorganic chemistry. Hobocken, NJ: Wiley-Interscience, 1999:1355; Silaghi-Dumitrescu et al. Nitric Oxide 2014; 42 C: 32-9. […] Rassaf et al. Circ Res 2014; 114:1601-10; Totzeck et al. Circulation 2012; 126:325-34 [J Clin Invest 1992; 89:989-95]; Totzeck et al. PLOS One 2014; 22: e105951; Hendgen-Cotta et al. Proc Natl Acad Sci USA 2008; 105:10256-61.
(§2) Thirty-two mice were divided into 4 equal groups: (1) control mice; (2) mice treated with 1 mg of N-Mgb injection (as a bolus through the tail vein); (3) mice treated with […] of SnPP (via tail vein); and (4) mice treated with combined N-Mgb 1 SnPP. After either 4 hours (n=16) or 18 hours (n=16), the mice were deeply anesthetized with pentobarbital (50 mg/kg), the abdomen was opened through a midline abdominal incision, and the kidneys were removed. To determine potential effects on extrarenal organs, a liver lobe and the heart were also removed. The tissues were iced and then extracted for protein and RNA (RNeasy Plus Mini; Qiagen, Valencia, California) and subjected to enzyme linked immunosorbent assay (ELISA) and reverse transcriptase polymerase chain reaction (RT-PCR) for HO-1, haptoglobin, and IL-10 protein and messenger RNAs (mRNAs). Zager et al. J Am Soc Nephrol 2014; 25:998-1012; Zager et al. Am J Physiol 2012; 303: F139-48. As an assessment of renal function, control mice and the 18 hour after N-Mgb+SnPP-treated mice had blood urea nitrogen (BUN) and plasma creatinine levels measured. Additionally, transverse 10% formalin fixed kidney sections ([…]) were cut and stained with hematoxylin and eosin (H&E) and periodic acid Schiff (PAS) to further assess potential injury.

HO-1 [3] = assay: Cardiac HO-1 mRNA and protein after IV N-Mgb, SnPP or both; assay type: in vivo, mice; conditions: for Cardiac mRNA: HO-1: control 0.07
Experimental: as §2

[4] = Plasma LDH 4 hr after IV test agents (marker of liver, kidney, lung and heart injury); assay type: in vivo, mice; conditions: 4 hr IV
HO-1 [5] = assay: Renal cortical HO-1 mRNA and protein after IV N-Mgb, SnPP or both; assay type: in vivo, mice
Text: as §1, §2

[6] = test system: cultured proximal tubule (HK-2) cells; conditions: Zager & Burkhart, Kidney Int 1997; cited from earlier work
haptoglobin [7] = assay: Cardiac haptoglobin mRNA and protein after IV N-Mgb, SnPP or both; assay type: in vivo, mice; conditions: for Cardiac mRNA: Haptoglobin: control 0.31; for Cardiac protein: Haptoglobin: control 15.6
Experimental: as §2

IL-10 [8] = assay: Liver IL-10 mRNA and protein after IV N-Mgb, SnPP or both; assay type: in vivo, mice; conditions: for Liver mRNA: IL-10: control 0.06; for Liver protein: IL-10: control 314
Experimental: as §2

HO-1 [9] = assay: Liver HO-1 mRNA and protein after IV N-Mgb, SnPP or both; assay type: in vivo, mice; conditions: for Liver mRNA: HO-1: control 1.1; for Liver protein: HO-1 protein: control 10.2
Experimental: as §2

haptoglobin [10] = assay: Renal cortical haptoglobin mRNA and protein after IV N-Mgb, SnPP or both; assay type: in vivo, mice
Text: as §1, §2

IL-10 [11] = assay: Cardiac IL-10 mRNA and protein after IV N-Mgb, SnPP or both; assay type: in vivo, mice; conditions: for Cardiac mRNA: IL-10: control 0.36
Experimental: as §2

Structure (SMILES): C=Cc1c2[n-]c(c1C)/C=c1\[n-]/c(c(C)c1C=C)=C\c1[n-]c(c(CCC(=O)O)c1C)/C=c1\[n-]c(c(C)c1CCC(=O)O)=C2.[Sn+4] [SnPP, tin protoporphyrin, reference compound]
- half-life [1]: 2 to 4 h
- Kidney mRNA: IL-10 (IL-10 [2]; 4 h after Rx, control 0.56): 0.39 ± 0.15
- Kidney protein: IL-10 (IL-10 [2]; 4 h after Rx): 550 ± 86
- Kidney mRNA cortex: IL-10 (IL-10 [2]; 18 h after Rx, control 0.56): 0.18 ± 0.09
- Kidney protein: IL-10 (IL-10 [2]; 18 h after Rx): 454 ± 51
- Cardiac mRNA: HO-1 (HO-1 [3]; 4 h after Rx): 0.14 ± 0.01
- Cardiac mRNA: HO-1 (HO-1 [3]; 18 h after Rx): 0.09 ± 0.03
- Cardiac protein: HO-1 (HO-1 [3]; 18 h after Rx, control 1.5): 2.67 ± 0.4
- Plasma LDH, Average ([4]; carrier 4.43): 4.51 Absorbance U LDH/ml
- Plasma LDH ([4]; individual subjects): 5.00 Absorbance U LDH/ml and 3.23 Absorbance U LDH/ml and 4.54 Absorbance U LDH/ml and 5.29 Absorbance U LDH/ml
- Kidney mRNA: HO-1 (HO-1 [5]; 4 h after Rx, control 0.61): 4.38 ± 0.28
- Kidney HO-1 protein (HO-1 [5]; 4 h after Rx, control 13.3): 22.9 ± 2.6
- Kidney mRNA cortex: HO-1 (HO-1 [5]; 18 h after Rx, control 0.61): 0.63 ± 0.06
- Kidney protein: HO-1 (HO-1 [5]; 18 h after Rx, control 13.3): 18 ± 2
- Reduction of Mgb toxicity by SnPP addition [6]: ≤ 85%
- Cardiac mRNA: Haptoglobin (haptoglobin [7]; 4 h after Rx): 0.52 ± 0.21
- Cardiac protein: Haptoglobin (haptoglobin [7]; 4 h after Rx): 19.1 ± 2.1
- Cardiac mRNA: Haptoglobin (haptoglobin [7]; 18 h after Rx): 0.59 ± 0.17
- Cardiac protein: Haptoglobin (haptoglobin [7]; 18 h after Rx): 96.1 ± 36.2
- Liver mRNA: IL-10 (IL-10 [8]; 4 h after Rx): 0.14 ± 0.1
- Liver protein: IL-10 (IL-10 [8]; 4 h after Rx): 485 ± 47
- Liver mRNA: IL-10 (IL-10 [8]; 18 h after Rx): 0.05 ± 0.01
- Liver protein: IL-10 (IL-10 [8]; 18 h after Rx): 8198 ± 725
- Liver mRNA: HO-1 (HO-1 [9]; 4 h after Rx): 3.15 ± 0.25
- Liver protein: HO-1 protein (HO-1 [9]; 4 h after Rx): 7.4 ± 0.7
- Liver mRNA: HO-1 (HO-1 [9]; 18 h after Rx): 2.56 ± 0.21
- Liver protein: HO-1 protein (HO-1 [9]; 18 h after Rx): 18 ± 2.5
- Kidney mRNA: Haptoglobin (haptoglobin [10]; 4 h after Rx, control 0.20): 0.19 ± 0.01
- Kidney protein: Haptoglobin (haptoglobin [10]; 4 h after Rx, control 7.9): 13.1 ± 1.3
- Kidney mRNA cortex: Haptoglobin (haptoglobin [10]; 18 h after Rx, control 0.20): 0.23 ± 0.08
- Kidney protein: Haptoglobin (haptoglobin [10]; 18 h after Rx, control 10.3): 53.5 ± 17.2
- Cardiac mRNA: IL-10 (IL-10 [11]; 4 h after Rx): 0.58 ± 0.16
- Cardiac protein: IL-10 (IL-10 [11]; 4 h after Rx, control 8.1): 15.8 ± 10^
- Cardiac mRNA: IL-10 (IL-10 [11]; 18 h after Rx): 0.53 ± 0.10
- Cardiac protein: IL-10 (IL-10 [11]; 18 h after Rx, control 8): 23.4 ± 14^
